# What was measured:
# [1] = tested on: ob/ob and db/db mice; details: following 8 weeks of administration; cited from earlier work
# [2] = biological target: T1, recombinant human AMPK complex 1 (containing α1β1γ1) (Homo sapiens, UniProt Q13131+Q9Y478); assay: In vitro AMPK activation assay (AMPKSAMSF), complex 1; assay type: biochemical; details: recombinant human AMPK complex 1 (α1β1γ1); for % Maximum AMP Activation of human AMPK Complex 1: 10-point titration expressed as % maximum AMP activation; for EC50: inflection point reflecting 50% of the maximum activation
# T1 construct: made in house; host or cells: Spodoptera frugiperda Sf21 cells, baculovirus, triple infection (one virus per subunit)
# Procedure: (§1) The recombinant human AMPK complex 1 (containing α1β1γ1) or AMPK complex 7 (containing α2β1γ1) was obtained from baculovirus expression system. Recombinant viruses were generated by cotransfection of AMPK/pBacPak9 clones with Baculogold baculovirus DNA (Pharmingen) in spodoptera frugiperda 21 cells according to the manufacturer's instructions. Each round of virus amplification was performed for 5 days in Grace's medium containing 10% serum. Virus that had been subjected to three rounds of amplification was used for all protein production procedures. To express the AMPK complex, sf21 cells were adapted to serum free medium (SF900 II, Invitrogen) by sequential dilution from serum containing stocks into SF900II medium and maintained in shaker flasks at 90 rpm at 27° C. The recombinant AMPK enzyme complex was produced by triple infection, one recombinant virus for each of the subunits, in sf21 cells under serum free conditions. Cells were infected in log phase, 1×10^6 cells/ml, at a multiplicity of infection of ˜5. Cells were harvested by centrifugation at 10,000×g for 15 minutes after 72 hours of infection with viruses. The insect cell pellet from 2 liters of culture was resuspended in 50 ml lysis buffer (20 mM Tris-HCl, 50 mM NaCl, 50 mM NaF, 30 mM Na PPi, 0.25 M sucrose, 10 mM ZnCl2, 2 mM DTT, 0.4 mg/ml digitonin) and subjected to two cycles of freeze-thaw lysis in a dry-ice ethanol bath. Insoluble material was removed by centrifugation at 10,000×g and the supernatant was fractionated with use of polyethylene glycol (PEG). The protein fraction precipitating between 2.5 and 6% PEG was used for further purification using a Blue-Sepharose step (Zhou et al, J. Clin. Invest. 108, 1167-1174, 2001).
# (§2) The in vitro AMPK activation assay is performed in a volume of 30 μl in a 384-well plate. Enzyme reactions were assembled in the microtiter plate by adding 15 μl of 2× enzyme in assay buffer (20 mM HEPES, pH 7.3, 5 mM MgCl2, 3 mM DTT, 0.01% Brij 35 and CamK Kinase, to activate AMPK) to wells which contained either DMSO or compound. The reaction was initiated with the addition of 15 μl 2× substrate mixture containing 200 μM ATP, and 3.0 μM fluorescently labeled SAMS (5-FAM-HMRSAMSGLHLVKRR-COOH) in assay buffer. After 45-minute incubation at 25° C., the reaction was stopped by the addition of 70 μl stop buffer (100 mM HEPES, pH 7.3, 40 mM EDTA, 0.015% Brij 35). Phosphorylated 5-FAM SAMS product is assessed using a Caliper EZ Reader LabChip microfluidics reader. Product conversion is determined by calculating the peak heights of the substrate and product and reporting the product/(product+substrate) peak ratio. The 10-point titration data were expressed as % maximum AMP activation. The results were plotted using 4 parameter fit and the inflection point reflecting 50% of the maximum activation was reported as the EC50.
# [3] = biological target: T2, recombinant human AMPK complex 7 (containing α2β1γ1) (Homo sapiens, UniProt P54646+Q9Y478); assay: In vitro AMPK activation assay (AMPKSAMSF), complex 7; assay type: biochemical; details: recombinant human AMPK complex 7 (α2β1γ1); for Emax: 10-point titration expressed as % maximum AMP activation; for EC50: inflection point reflecting 50% of the maximum activation
# T2 construct: made in house; host or cells: Spodoptera frugiperda Sf21 cells, baculovirus, triple infection (one virus per subunit)
# Procedure: as §1, §2
# T1 sequence (Q13131 whole entry): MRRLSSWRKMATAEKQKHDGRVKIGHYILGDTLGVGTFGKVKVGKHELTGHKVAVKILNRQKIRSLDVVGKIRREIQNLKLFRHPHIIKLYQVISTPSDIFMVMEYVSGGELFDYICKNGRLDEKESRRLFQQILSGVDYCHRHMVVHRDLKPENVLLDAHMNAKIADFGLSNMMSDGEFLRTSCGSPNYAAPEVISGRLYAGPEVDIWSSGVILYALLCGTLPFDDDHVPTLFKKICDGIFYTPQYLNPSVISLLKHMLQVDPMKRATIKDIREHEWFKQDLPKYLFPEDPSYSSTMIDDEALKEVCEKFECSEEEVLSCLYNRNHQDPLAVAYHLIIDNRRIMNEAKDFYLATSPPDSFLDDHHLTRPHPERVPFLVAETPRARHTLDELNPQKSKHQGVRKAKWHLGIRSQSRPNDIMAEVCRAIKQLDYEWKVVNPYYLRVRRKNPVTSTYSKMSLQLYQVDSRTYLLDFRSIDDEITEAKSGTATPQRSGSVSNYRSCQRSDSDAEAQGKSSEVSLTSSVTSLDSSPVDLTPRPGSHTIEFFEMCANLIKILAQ
# T1 sequence (Q9Y478 whole entry): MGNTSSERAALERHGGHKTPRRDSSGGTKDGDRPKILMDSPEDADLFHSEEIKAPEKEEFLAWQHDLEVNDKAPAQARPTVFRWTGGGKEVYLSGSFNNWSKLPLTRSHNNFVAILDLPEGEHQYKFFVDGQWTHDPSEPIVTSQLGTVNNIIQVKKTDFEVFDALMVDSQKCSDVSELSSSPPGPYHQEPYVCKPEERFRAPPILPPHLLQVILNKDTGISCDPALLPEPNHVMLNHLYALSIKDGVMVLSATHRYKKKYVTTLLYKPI
# T1 sequence (P54619 whole entry partner): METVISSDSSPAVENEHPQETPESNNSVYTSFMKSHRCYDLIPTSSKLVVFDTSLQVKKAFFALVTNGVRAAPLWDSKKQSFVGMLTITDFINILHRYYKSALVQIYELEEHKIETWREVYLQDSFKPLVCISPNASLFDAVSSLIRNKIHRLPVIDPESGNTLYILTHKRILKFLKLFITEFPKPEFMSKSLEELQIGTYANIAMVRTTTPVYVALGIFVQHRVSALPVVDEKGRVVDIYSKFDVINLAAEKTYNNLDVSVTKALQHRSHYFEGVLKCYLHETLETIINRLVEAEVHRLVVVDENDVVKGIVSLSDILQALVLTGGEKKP
# T2 sequence (P54646 whole entry): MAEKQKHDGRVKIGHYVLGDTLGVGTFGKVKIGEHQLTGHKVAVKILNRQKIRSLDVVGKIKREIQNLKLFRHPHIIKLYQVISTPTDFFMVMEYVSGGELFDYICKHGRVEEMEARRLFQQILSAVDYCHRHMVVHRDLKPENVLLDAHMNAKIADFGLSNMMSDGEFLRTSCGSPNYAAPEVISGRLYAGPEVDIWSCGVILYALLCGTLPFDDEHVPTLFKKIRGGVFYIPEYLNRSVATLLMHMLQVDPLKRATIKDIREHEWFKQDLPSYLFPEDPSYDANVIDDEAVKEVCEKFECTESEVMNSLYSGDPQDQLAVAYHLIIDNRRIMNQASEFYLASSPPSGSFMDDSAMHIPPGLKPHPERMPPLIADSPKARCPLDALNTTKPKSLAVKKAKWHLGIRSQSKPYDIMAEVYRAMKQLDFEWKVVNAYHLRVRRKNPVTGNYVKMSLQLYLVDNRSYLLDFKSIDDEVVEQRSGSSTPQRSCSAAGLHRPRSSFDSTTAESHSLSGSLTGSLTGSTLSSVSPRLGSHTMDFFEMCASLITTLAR
# T2 sequence (Q9Y478 whole entry): as the sequence (Q9Y478 whole entry) above
# T2 sequence (P54619 whole entry partner): as the sequence (P54619 whole entry partner) above
Emax [3] [%],EC50 [3] [nM],SMILES,blood glucose reduction [1] [%],% Maximum AMP Activation of human AMPK Complex 1 [2] [%],EC50 [2] [nM]
380,3,Oc1ccnc(-c2ccc(-c3ccc(-c4c(F)cc5[nH]c(O[C@@H]6CO[C@H]7[C@@H]6OC[C@H]7O)nc5c4F)cc3)cc2)n1 [Example 41],,,
341,3,O[C@@H]1CO[C@H]2[C@@H]1OC[C@H]2Oc1nc2c(F)c(-c3ccc(-c4ccc(-n5ccnn5)cc4)cc3)c(F)cc2[nH]1 [Example 43],,,
364,2,CNC(=O)c1ccc(-c2ccc(-c3c(F)cc4[nH]c(O[C@@H]5CO[C@H]6[C@@H]5OC[C@H]6O)nc4c3F)cc2)cc1 [Example 46],,,
348,4,N=c1nc(N)[nH]n1-c1ccc(-c2ccc(-c3c(F)cc4[nH]c(O[C@@H]5CO[C@H]6[C@@H]5OC[C@H]6O)nc4c3F)cc2)cc1 [Example 47],,,
356,8,O=C(O)C1CC1c1ccc(-c2ccc(-c3cc4nc(O[C@@H]5CO[C@H]6[C@@H]5OC[C@H]6O)[nH]c4cc3Cl)cc2)cc1 (stereo partly drawn) [Example 57],,,
324,4,O[C@@H]1CO[C@H]2[C@@H]1OC[C@H]2Oc1nc2cc(-c3ccc(-c4ccc(C5CNCCO5)cc4)cc3)c(Cl)cc2[nH]1 (stereo partly drawn) [Example 67],,,
344,3,Oc1ccnc(-c2ccc(-c3ccc(-c4cc5nc(O[C@@H]6CO[C@H]7[C@@H]6OC[C@H]7O)[nH]c5cc4Cl)cc3)cc2)n1 [Example 68],,,
359,2,O=c1ncn(-c2ccc(-c3ccc(-c4cc5nc(O[C@@H]6CO[C@H]7[C@@H]6OC[C@H]7O)[nH]c5cc4Cl)cc3)cc2)[nH]1 [Example 69],,,
352,5,CC(CO)(CO)c1ccc(-c2ccc(-c3cc4nc(O[C@@H]5CO[C@H]6[C@@H]5OC[C@H]6O)[nH]c4cc3Cl)cc2)cc1 [Example 71],,,
384,7,O[C@@H]1CO[C@H]2[C@@H]1OC[C@H]2Oc1nc2cc(-c3ccc(-c4ccc(-n5ccnn5)cc4)cc3)c(Cl)cc2[nH]1 [Example 73],,,
369,16,O[C@@H]1CO[C@H]2[C@@H]1OC[C@H]2Oc1nc2cc(-c3ccc(-c4ccc(-n5cccn5)cc4)cc3)c(Cl)cc2[nH]1 [Example 74],,,
386,5,CNC(=O)c1ccc(-c2ccc(-c3cc4nc(O[C@@H]5CO[C@H]6[C@@H]5OC[C@H]6O)[nH]c4cc3Cl)cc2)cc1 [Example 76],,,
368,8,N=c1nc(N)[nH]n1-c1ccc(-c2ccc(-c3cc4nc(O[C@@H]5CO[C@H]6[C@@H]5OC[C@H]6O)[nH]c4cc3Cl)cc2)cc1 [Example 77],,,
381,9,O=S(=O)(c1ccc(-c2ccc(-c3cc4nc(O[C@@H]5CO[C@H]6[C@@H]5OC[C@H]6O)[nH]c4cc3Cl)cc2)cc1)C1CCNCC1 [Example 79],,,
365,5,O=C1NCCC1c1ccc(-c2ccc(-c3cc4nc(O[C@@H]5CO[C@H]6[C@@H]5OC[C@H]6O)[nH]c4cc3Cl)cc2)cc1 (stereo partly drawn) [Example 83],,,

# Second part, the compound before the results:
SMILES,Emax [3] [%],EC50 [3] [nM],blood glucose reduction [1] [%],% Maximum AMP Activation of human AMPK Complex 1 [2] [%],EC50 [2] [nM]
NC(=O)c1ncn([C@@H]2O[C@H](CO)[C@@H](O)[C@H]2O)c1N [AICAR],,,35,,
"O[C@@H]1CO[C@H]2[C@@H]1OC[C@H]2Oc1nc2c(F)c(-c3ccc(-c4ccccc4)cc3)c(F)cc2[nH]1 [Example 1, (3R,3aR,6R,6aR)-6-((5-([1,1′-biphenyl]-4-yl)-4,6-difluoro-1H-benzo[d]imidazol-2-yl)oxy)hexahydrofuro[3,2-b]furan-3-ol]",,,,636,51
CS(=O)(=O)c1ccc(-c2ccc(-c3cc4nc(O[C@@H]5CO[C@H]6[C@@H]5OC[C@H]6O)[nH]c4cc3Cl)cc2)cc1 [Example 6],,,,367,14
O[C@@H]1CO[C@H]2[C@@H]1OC[C@H]2Oc1nc2cc(-c3ccc(-c4ccccc4)cc3)c(Cl)cc2[nH]1 [Example 8],,,,368,32
CC(C)(O)c1ccc(-c2ccc(-c3c(F)cc4[nH]c(O[C@@H]5CO[C@H]6[C@@H]5OC[C@H]6O)nc4c3F)cc2)cc1 [Example 15],,,,416,18
"OCc1ccc(-c2ccc(-c3c(F)cc4[nH]c(O[C@H]5COC6C5OC[C@@H]6O)nc4c3F)cc2)cc1 (stereo partly drawn) [Example 18, (3S,6S)-6-((4,6-difluoro-5-(4′-(hydroxymethyl)-[1,1′-biphenyl]-4-yl)-1H-benzo[d]imidazol-2-yl)oxy)hexahydrofuro[3,2-b]furan-3-ol]",,,,314,6
"O=C(c1ccc(-c2ccc(-c3c(F)cc4[nH]c(O[C@H]5COC6C5OC[C@@H]6O)nc4c3F)cc2)cc1)N1CC[C@@H](O)C1 (stereo partly drawn) [Example 19, (4′-(4,6-difluoro-2-(((3S,6S)-6-hydroxyhexahydrofuro[3,2-b]furan-3-yl)oxy)-1H-benzo[d]imidazol-5-yl)-[1,1′-biphenyl]-4-yl)((R)-3-hydroxypyrrolidin-1-yl)methanone]",,,,232,35
O=C(O)C1CC1c1ccc(-c2ccc(-c3c(F)cc4[nH]c(O[C@@H]5CO[C@H]6[C@@H]5OC[C@H]6O)nc4c3F)cc2)cc1 (stereo partly drawn) [Example 26],350,5,,,
CC(CO)(CO)c1ccc(-c2ccc(-c3c(F)cc4[nH]c(O[C@@H]5CO[C@H]6[C@@H]5OC[C@H]6O)nc4c3F)cc2)cc1 [Example 33],316,5,,,
O[C@@H]1CO[C@H]2[C@@H]1OC[C@H]2Oc1nc2c(F)c(-c3ccc(-c4ccc(C5CNCCO5)cc4)cc3)c(F)cc2[nH]1 (stereo partly drawn) [Example 34],263,5,,,
O=C1NCCC1c1ccc(-c2ccc(-c3c(F)cc4[nH]c(O[C@@H]5CO[C@H]6[C@@H]5OC[C@H]6O)nc4c3F)cc2)cc1 (stereo partly drawn) [Example 40],364,5,,,
